# Results from ChEMBL document CHEMBL5665443, “Enzyme Inhibitor Single Concentration assay results for EUbOPEN Chemogenomics Library” (2024).
# Columns and labels:
# [1] = target: Uracil-DNA glycosylase (Homo sapiens) (UniProt P13051); conditions: Compound Concentration 10.0 uM, Hit No;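 note: UNG excision on a quenched double-stranded DNA oligo probe, with APE1 added for strand incision and turnover, read as fluorescence at 594 nm as strands separate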
# Description: Inhibition of UNG by quantifying inhibition of UNG-mediated cleavage and dissociation of quenched duplex DNA oligonucleotides, measured as fluorescence at 594 nm. To generate a functional strand incision and increase turn-over this assay is coupled to APE1.
# [2] = target: T1, Endonuclease 8-like 2 (Homo sapiens) (UniProt Q969S2); conditions: Compound Concentration 10.0 uM;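 note: fluorescence at 594 nm reports NEIL2 cutting and release of a quenched double-stranded DNA oligo substrate, reduced signal read as inhibition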
# T1 sequence (whole entry): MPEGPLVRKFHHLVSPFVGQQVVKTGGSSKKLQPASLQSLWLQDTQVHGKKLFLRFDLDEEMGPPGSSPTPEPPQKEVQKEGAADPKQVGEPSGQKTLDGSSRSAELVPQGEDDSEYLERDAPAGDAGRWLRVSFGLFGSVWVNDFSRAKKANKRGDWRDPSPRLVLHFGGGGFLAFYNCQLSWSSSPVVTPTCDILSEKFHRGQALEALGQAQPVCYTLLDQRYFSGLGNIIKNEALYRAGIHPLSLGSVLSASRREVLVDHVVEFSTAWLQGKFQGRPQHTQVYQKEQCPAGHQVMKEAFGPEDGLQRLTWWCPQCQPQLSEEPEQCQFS
# Description: Inhibition of NEIL2 by quantifying inhibition of NEIL2-mediated cleavage and dissociation of quenched duplex DNA oligonucleotides, measured as fluorescence at 594 nm.
# [3] = target: Endonuclease 8-like 1 (Homo sapiens) (UniProt Q96FI4); conditions: Compound Concentration 10.0 uM, Hit No;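 note: fluorescence at 594 nm from quenched duplex DNA oligonucleotides released by NEIL1 cleavage and strand separation, reported as reduction of this enzyme activity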
# Description: Inhibition of NEIL1 by quantifying inhibition of NEIL1-mediated cleavage and dissociation of quenched duplex DNA oligonucleotides, measured as fluorescence at 594 nm.
# [4] = target: DNA-3-methyladenine glycosylase (Homo sapiens) (UniProt P29372); conditions: Compound Concentration 10.0 uM;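 note: enzyme assay where MPG cuts a quenched duplex DNA oligonucleotide probe, paired with APE1 for strand incision and turnover, read as fluorescence at 594 nm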
# Description: Inhibition of MPG by quantifying inhibition of MPG-mediated cleavage and dissociation of quenched duplex DNA oligonucleotides, measured as fluorescence at 594 nm. To generate a functional strand incision and increase turn-over this assay is coupled to APE1.
# [5] = target: T2, Endonuclease III-like protein 1 (Homo sapiens) (UniProt P78549); conditions: Compound Concentration 10.0 uM, Hit No;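 note: enzyme assay tracking NTHL1 cutting and release of a quenched double-stranded DNA oligo substrate, read as fluorescence at 594 nm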
# T2 sequence (whole entry): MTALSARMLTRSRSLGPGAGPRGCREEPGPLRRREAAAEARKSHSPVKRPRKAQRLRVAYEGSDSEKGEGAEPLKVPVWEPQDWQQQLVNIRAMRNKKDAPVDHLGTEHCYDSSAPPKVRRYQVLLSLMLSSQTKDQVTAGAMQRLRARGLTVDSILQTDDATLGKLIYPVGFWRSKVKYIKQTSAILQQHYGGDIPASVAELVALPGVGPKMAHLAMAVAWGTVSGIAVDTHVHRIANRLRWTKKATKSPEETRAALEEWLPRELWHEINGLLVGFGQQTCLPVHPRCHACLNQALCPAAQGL
# Description: Inhibition of NTHL1 by quantifying inhibition of NTHL1-mediated cleavage and dissociation of quenched duplex DNA oligonucleotides, measured as fluorescence at 594 nm.
# [6] = target: Methyl-CpG-binding domain protein 4 (Homo sapiens) (UniProt O95243); conditions: Compound Concentration 10.0 uM;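 note: MBD4 activity read as fluorescence at 594 nm from cleavage and release of a quenched duplex DNA oligonucleotide, with APE1 coupled to incise the strand and raise turnover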
# Description: Inhibition of MBD4 by quantifying inhibition of MBD4-mediated cleavage and dissociation of quenched duplex DNA oligonucleotides, measured as fluorescence at 594 nm. To generate a functional strand incision and increase turn-over this assay is coupled to APE1.
# [7] = target: T3, Adenine DNA glycosylase (Homo sapiens) (UniProt Q9UIF7); conditions: Compound Concentration 10.0 uM;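 note: human MUTYH activity read as 594 nm fluorescence from cleavage and release of a quenched DNA duplex, coupled with APE1 for strand incision, lower signal meaning inhibition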
# T3 sequence (whole entry): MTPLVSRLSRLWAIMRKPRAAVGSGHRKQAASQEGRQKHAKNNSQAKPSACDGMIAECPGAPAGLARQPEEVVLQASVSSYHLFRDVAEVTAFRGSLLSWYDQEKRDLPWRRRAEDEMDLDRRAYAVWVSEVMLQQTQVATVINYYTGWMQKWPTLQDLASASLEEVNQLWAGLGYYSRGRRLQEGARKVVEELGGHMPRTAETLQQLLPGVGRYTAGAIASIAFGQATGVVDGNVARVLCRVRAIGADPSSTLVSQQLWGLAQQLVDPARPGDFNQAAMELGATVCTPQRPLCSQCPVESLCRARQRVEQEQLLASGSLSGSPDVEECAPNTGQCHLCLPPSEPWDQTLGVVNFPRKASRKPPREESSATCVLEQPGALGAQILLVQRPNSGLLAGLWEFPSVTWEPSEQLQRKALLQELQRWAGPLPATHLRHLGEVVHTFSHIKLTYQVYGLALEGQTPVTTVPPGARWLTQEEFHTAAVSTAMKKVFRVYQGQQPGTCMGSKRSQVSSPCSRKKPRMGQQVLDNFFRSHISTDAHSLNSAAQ
# Description: Inhibition of MUTYH by quantifying inhibition of MUTYH-mediated cleavage and dissociation of quenched duplex DNA oligonucleotides, measured as fluorescence at 594 nm. To generate a functional strand incision and increase turn-over this assay is coupled to APE1.
# [8] = target: G/T mismatch-specific thymine DNA glycosylase (Homo sapiens) (UniProt Q13569); conditions: Compound Concentration 10.0 uM;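 note: human TDG cleavage of quenched duplex DNA oligonucleotides coupled to APE1, strand release read as fluorescence at 594 nm, inhibition of TDG activity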
# Description: Inhibition of TDG by quantifying inhibition of TDG-mediated cleavage and dissociation of quenched duplex DNA oligonucleotides, measured as fluorescence at 594 nm. To generate a functional strand incision and increase turn-over this assay is coupled to APE1.
# [9] = target: N-glycosylase/DNA lyase (Homo sapiens) (UniProt O15527); conditions: Compound Concentration 10.0 uM;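 note: OGG1 cleavage of a quenched duplex DNA oligonucleotide, coupled to APE1 for strand incision, read as fluorescence at 594 nm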
# Chain of N-glycosylase/DNA lyase (Homo sapiens) (O15527 whole entry): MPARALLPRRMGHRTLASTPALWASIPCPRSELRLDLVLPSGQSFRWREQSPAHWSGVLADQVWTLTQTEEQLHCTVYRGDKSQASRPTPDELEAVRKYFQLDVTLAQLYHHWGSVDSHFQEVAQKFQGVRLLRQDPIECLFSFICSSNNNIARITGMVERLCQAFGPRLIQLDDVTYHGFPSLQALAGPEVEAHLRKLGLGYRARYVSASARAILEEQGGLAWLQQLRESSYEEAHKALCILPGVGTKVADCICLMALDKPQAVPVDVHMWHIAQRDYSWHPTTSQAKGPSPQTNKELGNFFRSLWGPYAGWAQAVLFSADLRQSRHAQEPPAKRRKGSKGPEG
# Description: Inhibition of OGG1 by quantifying inhibition of OGG1-mediated cleavage and dissociation of quenched duplex DNA oligonucleotides, measured as fluorescence at 594 nm. To generate a functional strand incision and increase turn-over this assay is coupled to APE1.
# Chain of G/T mismatch-specific thymine DNA glycosylase (Homo sapiens) (Q13569 whole entry): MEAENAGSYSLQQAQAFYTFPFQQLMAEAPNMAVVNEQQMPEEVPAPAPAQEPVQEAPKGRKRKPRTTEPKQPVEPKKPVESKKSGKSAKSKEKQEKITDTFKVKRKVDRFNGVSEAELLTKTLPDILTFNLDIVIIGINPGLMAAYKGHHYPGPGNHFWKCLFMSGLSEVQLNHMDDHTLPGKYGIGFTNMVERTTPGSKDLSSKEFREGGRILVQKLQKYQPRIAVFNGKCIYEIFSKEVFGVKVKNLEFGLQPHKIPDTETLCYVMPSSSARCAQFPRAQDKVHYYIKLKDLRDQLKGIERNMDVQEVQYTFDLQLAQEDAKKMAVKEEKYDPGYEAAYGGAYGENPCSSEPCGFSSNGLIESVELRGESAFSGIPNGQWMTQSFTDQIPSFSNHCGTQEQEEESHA
# Chain of Uracil-DNA glycosylase (Homo sapiens) (P13051 whole entry): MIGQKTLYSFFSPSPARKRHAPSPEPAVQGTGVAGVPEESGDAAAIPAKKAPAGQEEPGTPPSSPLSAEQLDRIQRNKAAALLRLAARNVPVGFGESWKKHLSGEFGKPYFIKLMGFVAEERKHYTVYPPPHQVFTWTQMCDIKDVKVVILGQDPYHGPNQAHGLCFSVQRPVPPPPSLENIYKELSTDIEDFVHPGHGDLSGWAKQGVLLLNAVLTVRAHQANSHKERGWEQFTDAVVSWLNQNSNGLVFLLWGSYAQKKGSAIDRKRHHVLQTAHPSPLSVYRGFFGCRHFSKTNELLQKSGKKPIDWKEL
# Chain of Methyl-CpG-binding domain protein 4 (Homo sapiens) (O95243 whole entry, the tested form may be a part): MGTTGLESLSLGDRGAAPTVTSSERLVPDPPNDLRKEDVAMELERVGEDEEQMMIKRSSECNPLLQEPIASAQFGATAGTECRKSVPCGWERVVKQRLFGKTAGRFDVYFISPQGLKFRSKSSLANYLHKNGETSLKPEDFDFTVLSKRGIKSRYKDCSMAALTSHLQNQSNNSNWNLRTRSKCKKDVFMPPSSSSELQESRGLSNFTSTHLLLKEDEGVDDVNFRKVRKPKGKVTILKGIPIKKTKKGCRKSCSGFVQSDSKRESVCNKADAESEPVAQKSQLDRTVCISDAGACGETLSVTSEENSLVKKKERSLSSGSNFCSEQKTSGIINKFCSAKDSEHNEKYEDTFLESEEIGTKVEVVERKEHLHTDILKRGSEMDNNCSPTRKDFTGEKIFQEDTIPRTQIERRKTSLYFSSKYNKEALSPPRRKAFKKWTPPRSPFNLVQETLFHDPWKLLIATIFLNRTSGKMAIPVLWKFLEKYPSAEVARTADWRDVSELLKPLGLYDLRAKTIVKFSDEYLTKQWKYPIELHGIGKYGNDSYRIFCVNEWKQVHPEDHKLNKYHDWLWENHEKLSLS
# Chain of Endonuclease 8-like 1 (Homo sapiens) (Q96FI4 whole entry): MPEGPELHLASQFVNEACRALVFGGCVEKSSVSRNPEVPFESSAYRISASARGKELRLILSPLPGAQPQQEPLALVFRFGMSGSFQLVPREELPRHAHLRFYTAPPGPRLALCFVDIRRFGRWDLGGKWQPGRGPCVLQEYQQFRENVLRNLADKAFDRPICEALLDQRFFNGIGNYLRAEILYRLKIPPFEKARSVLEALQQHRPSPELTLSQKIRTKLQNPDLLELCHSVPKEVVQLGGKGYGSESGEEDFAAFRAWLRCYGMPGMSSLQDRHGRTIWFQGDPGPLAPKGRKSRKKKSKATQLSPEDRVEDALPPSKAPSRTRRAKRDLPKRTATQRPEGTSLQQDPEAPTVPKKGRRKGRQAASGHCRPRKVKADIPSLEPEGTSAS
# Chain of DNA-3-methyladenine glycosylase (Homo sapiens) (P29372 whole entry): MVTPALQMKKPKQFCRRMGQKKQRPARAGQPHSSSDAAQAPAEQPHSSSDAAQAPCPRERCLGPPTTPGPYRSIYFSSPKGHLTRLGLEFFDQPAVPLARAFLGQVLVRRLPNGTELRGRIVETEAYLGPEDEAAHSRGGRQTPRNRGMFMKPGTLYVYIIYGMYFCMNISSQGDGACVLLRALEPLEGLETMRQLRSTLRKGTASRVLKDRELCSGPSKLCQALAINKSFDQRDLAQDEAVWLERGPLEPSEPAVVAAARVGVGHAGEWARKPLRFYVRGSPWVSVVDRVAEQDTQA
SMILES,inhibition [1] [%],inhibition ([2]; Hit No) [%],inhibition [3] [%],inhibition ([4]; Hit No) [%],inhibition [5] [%],inhibition ([6]; Hit No) [%],inhibition ([7]; Hit No) [%],inhibition ([8]; Hit No) [%],inhibition ([9]; Hit No) [%],inhibition ([2]; Hit Yes) [%],inhibition ([4]; Hit Yes) [%],inhibition ([6]; Hit Yes) [%],inhibition ([7]; Hit Yes) [%],inhibition ([8]; Hit Yes) [%],inhibition ([9]; Hit Yes) [%]
O=C(O)CCCCCC[C@H]1C(=O)NC(=O)N1CCC(O)C1CCCCC1 (stereo partly drawn),-5.39,-1.37,-4.58,-5.01,23.7,9.44,39.4,11,-6.34,,,,,,
Cc1ccccc1C#Cc1ccc(CCC(=O)O)cc1,-2.61,1.69,-4.44,10.7,6.35,11.2,12.8,14.4,8.7,,,,,,
O=C(Nc1ccc(Cl)cc1)N[C@@H](Cc1ccccc1)C(=O)N1CCCCC1,-3.64,-3.15,0.898,30.7,17.9,27.2,13.5,22.9,-1.34,,,,,,
CCCN(CCc1cccs1)[C@H]1CCc2c(O)cccc2C1,-4.64,-1.88,-8.88,14.7,18.7,27.8,14.9,8.18,-7.03,,,,,,
CCCCC(=O)N(Cc1ccc(-c2ccccc2C(=O)O)cc1)c1ccccc1,-5.18,-3.15,1.79,11.5,7.17,33.4,18,23.9,-7.96,,,,,,
COc1cc2nc(N(C)CCCNC(=O)C3CCCO3)nc(N)c2cc1OC (stereo not drawn),-4.94,,-3.84,21.4,27.8,25.4,34.2,16.1,-9.24,32.3,,,,,
c1ccc(Cn2c(N3CCNCC3)nc3ccccc32)cc1,-7.26,-2.13,3.42,2.45,25.3,-1.45,0.413,-3.94,-7.05,,,,,,
CCCCCCNC(=O)Nc1ccc(S(=O)(=O)Nc2ccc(CCNC[C@H](O)COc3ccc(O)cc3)cc2)cc1,5.25,-3.66,-4.58,,10.5,,,,3.62,,105,102,107,105,
FC(F)(F)c1ccc(N2CCNCC2)nc1Cl,-2.44,-1.62,-3.1,8.14,11.3,12.7,-0.34,27.6,-4.95,,,,,,
CCCCCCCCCCCCCCC[C@@H](O)[C@@H](N)COP(=O)(O)O,-5.95,4.76,6.76,9.63,5.59,-8.45,-9.71,3,-0.598,,,,,,
O=C(O)c1cccc(/C=C2/C[C@@H]3[C@@H](/C=C/[C@H](O)C4CCCCC4)[C@H](O)C[C@@H]3O2)c1,-4.36,-5.7,-8.73,18.3,15.4,16.8,18.1,21.2,-8.69,,,,,,
O=c1cc(-c2cc(F)c(Cl)nc2Cl)[nH]c2c(-c3ccccc3)c(C(F)(F)F)nn12,1.49,16,-6.07,43.4,8,66.3,63.1,54.8,,,,,,,60.4
